# Assay results reported in PMC6686047, “Efficient Inhibition of Human Papillomavirus Infection by L2 Minor Capsid-Derived Lipopeptide” (mBio, 2019).
# Bridge positions count the residues as written; N and C are the ends. Peptide text beside a SMILES is read from it. * marks the point of attachment. FITC = O=C1OC2(c3ccc(O)cc3Oc3cc(O)ccc32)c2ccc(NC(=S)*)cc21; Stearoyl = CCCCCCCCCCCCCCCCCC(=O)*
# Assays:
# [1] = test system: intracellular HPV L1 and L2; experiment: Immunoblot detection of intracellular L1 and L2; assay type: cell-based, HPV16; conditions: CHO-K1 cells, HPV-GFP MOI of 50; 500 nM 13-46st, 100 nM BafA1 or both for 24 h
# Method: (§1) FIG 5 The L2N lipopeptide blocks HPV entry without affecting HPV capsid priming and internalization. (A) Cell binding and uptake of L2N lipopeptide. HeLa cells were incubated with 500 nM FITC-m13-46st peptide for indicated times. Images were captured after three PBS washes. Bar, 25 μm. (B) L2N lipopeptide inhibits HPV-GFP entry. HeLa cells were treated with 500 nM L2N lipopeptide (13-46st) before (pre), during (co), or after (post) HPV-GFP inoculation. Mock, no peptide treatment. GFP intensity was analyzed at 36 hpi. Bar, 200 μm. (C) Peptide addition/withdrawal assays were performed as indicated in the schematic diagram (top). CHO-K1 cells were incubated with HPV-Lucia at 4°C for 2 h. […] Lucia activity was analyzed at 40 hpi. […] Intracellular L1 and L2 levels were determined by immunoblotting with MD2H11 and JWW-1, respectively. […] HPV L2 JWW-1 epitope exposure was analyzed by immunostaining with JWW-1 antibody (in red). […]
# FIG 6 The L2N lipopeptide blocks TGN trafficking of HPV, leading to rapid virion degradation. […] Localization of the TGN (green) was analyzed by immunostaining with anti-P230 antibody. […] The ratios of EdU puncta in the nucleus (B) or in the TGN (C) were quantified based on representative images under each condition. P values were determined by ordinary one-way ANOVA with Dunnett’s multiple-comparison test (n = 10) ****, P < 0.0001. […]
# [2] = test system: HPV-Lucia (HPV16 pseudovirus carrying Lucia); conditions: 4 h
# HeLa cells = experiment: L2N-FITC peptide binding and uptake assay; assay type: cell-based, homo sapiens; conditions: 500 nM FITC-m13-46st for indicated times, three PBS washes, fluorescence imaging
# Method: FIG 5 The L2N lipopeptide blocks HPV entry without affecting HPV capsid priming and internalization. (A) Cell binding and uptake of L2N lipopeptide. HeLa cells were incubated with 500 nM FITC-m13-46st peptide for indicated times. Images were captured after three PBS washes. Bar, 25 μm. (B) L2N lipopeptide inhibits HPV-GFP entry. HeLa cells were treated with 500 nM L2N lipopeptide (13-46st) before (pre), during (co), or after (post) HPV-GFP inoculation. Mock, no peptide treatment. GFP intensity was analyzed at 36 hpi. Bar, 200 μm. (C) Peptide addition/withdrawal assays were performed as indicated in the schematic diagram (top). CHO-K1 cells were incubated with HPV-Lucia at 4°C for 2 h. The 13-46st lipopeptide (500 nM) was subsequently added or withdrawn from the medium 1, 2, 4, 8, and 16 h after viral attachment. Lucia activity was analyzed at 40 hpi. (D) CHO-K1 cells were infected with HPV-L2-PSTCD-3×FLAG (MOI of 50) and treated with the indicated chemicals: 500 nM dRVRK, 500 nM L2N lipopeptide 13-46st (L2N), 100 nM BafA1, and 1 μM γ-secretase inhibitor XXI. L2 immunoblotting was performed with anti-FLAG antibody at 16 hpi. […] Intracellular L1 and L2 levels were determined by immunoblotting with MD2H11 and JWW-1, respectively. […] HPV L2 JWW-1 epitope exposure was analyzed by immunostaining with JWW-1 antibody (in red). […]
# furin cleavage of HPV L2 = experiment: Furin cleavage of PSTCD-fused L2 (immunoblot); assay type: cell-based, HPV16; conditions: CHO-K1 cells, HPV-L2-PSTCD-3×FLAG MOI of 50; 500 nM dRVRK, 500 nM 13-46st, 100 nM BafA1, 1 μM γ-secretase inhibitor XXI; anti-FLAG immunoblot
# Method: as §1
# To further dissect how the L2N lipopeptide interfered with HPV entry, we tested whether furin cleavage, internalization, and JWW-1 epitope exposure of HPV were affected by peptide treatment in either CHO-K1 cells or HeLa cells. Furin cleavage was analyzed by infection of HPV PsV carrying Propionibacterium shermanii transcarboxylase domain (PSTCD)-fused L2. […] Internalization of viral particles was analyzed by detecting intracellular L1 and L2 at 2 h postinfection.
compound,measurement,setting,value
"CO/C1=C\C(C)=C\[C@@H](C)[C@@H](O)[C@@H](C)C/C(C)=C/C=C/[C@H](OC)[C@@H]([C@@H](C)[C@@H](O)[C@H](C)[C@@]2(O)C[C@@H](O)[C@H](C)[C@@H](C(C)C)O2)OC1=O [BafA1, bafilomycin A1]",intracellular full-length L1 and L2 levels,[1],prevented L1 and L2 degradation
CCCCCCCCCCCCCCCCCC(=O)NCCCC[C@H](NC(=O)[C@H](CCCCNC(=S)Nc1ccc2c(c1)C(=O)OC21c2ccc(O)cc2Oc2cc(O)ccc21)NC(=O)[C@H](CO)NC(=O)CNC(=O)[C@H](CC(C)C)NC(=O)[C@@H](NC(=O)[C@H](CCCNC(=N)N)NC(=O)[C@H](CC(=O)O)NC(=O)[C@H](C)NC(=O)[C@H](CC(C)C)NC(=O)[C@@H](NC(=O)[C@H](CC(N)=O)NC(=O)CNC(=O)[C@H](CCC(=O)O)NC(=O)[C@@H](NC(=O)[C@H](CCCCN)NC(=O)[C@H](CC(N)=O)NC(=O)[C@@H](NC(=O)[C@@H](NC(=O)[C@H](CC(=O)O)NC(=O)[C@@H]1CCCN1C(=O)[C@@H]1CCCN1C(=O)[C@@H]1CSSC[C@H](NC(=O)[C@H](CCC(N)=O)NC(=O)[C@H](CCCNC(=N)N)NC(=O)[C@H](Cc2ccc(O)cc2)NC(=O)[C@H](CC(C)C)NC(=O)[C@H](CC(N)=O)NC(=O)[C@H](CO)NC(=O)[C@H](C)NC(=O)[C@H](CO)NC(=O)[C@@H](N)CC(=O)O)C(=O)N[C@@H](CCC(N)=O)C(=O)N[C@@H](C(C)C)C(=O)N[C@@H]([C@@H](C)O)C(=O)NCC(=O)N[C@@H](CC(N)=O)C(=O)N1)C(C)C)C(C)C)C(C)C)[C@@H](C)O)[C@@H](C)CC)C(=O)O [FITC-m13-46st] (H-DSASNLYRQCQVTGNCPPDVVNKVEGNTLADRILGSK(FITC)K(Stearoyl)-OH; disulfide 10-16),IC50,[2],< 10 nM
same,cell binding and uptake of the lipopeptide,HeLa cells,"readily detected on HeLa cells at 15 min postincubation, and significant internalization was observed at 30 min postincubation and became apparent at 2 h postincubation"
CCCCCCCCCC(=O)N[C@@H](CCCN=C(N)N)C(=O)N[C@H](C(=O)N[C@@H](CCCCN)C(=O)N[C@@H](CCCN=C(N)N)C(=O)CCl)C(C)C [dRVRK] (HELM PEPTIDE1{[CCCCCCCCCC(=O)[*:2]].R.V.K.R.[ClC[*:1]]}$$$$V2.0),furin cleavage of L2,furin cleavage of HPV L2,furin cleavage was inhibited
